{
  "source": "patent US20040109825A1",
  "about": "“Topical patch preparation kit containing a delayed-type hypersensitivity inducer” (priority 2002, published 2004)",
  "key": {"[1]": {"details": "cited from earlier work"}, "[2]": {"assay": "Stability of DNCB in a dissolved state", "type": "physicochemical", "details": "even more unstable at high temperatures"}},
  "data": [
    {"smiles": "O=[N+]([O-])c1ccc(Cl)c([N+](=O)[O-])c1", "note": "[DNCB, 1-chloro-2,4-dinitrobenzene]", "values": [
      {"measurement": "adverse events of DNCB", "setting": "[1]; reports to date", "value": "have not been any reports to date of cases of life-threatening adverse events"},
      {"measurement": "carcinogenicity", "setting": "[1]; research conducted in the 1950s in the United States", "value": "not carcinogenic"},
      {"measurement": "stability in a dissolved state", "setting": "[2]", "value": "unstable in a dissolved state"}
    ]}
  ]
}
